A value given as a limit tells only on which side of the number the result lay.

Regarding `CCCCCc1ccc(-c2ccc(OCCCC)c(N)c2)cc1`, the melting point (commonly the temperature, or range, at which the solid turns liquid) was 38 °C. In the case of `CC(C)(C)OC(=O)N1CCC(Oc2c(F)cc3c(=O)c(C(=O)O)cn(C4CC4)c3c2F)C1` (configuration not stated), the melting point fell in the range of 158 to 160 °C. Compound `CCN1c2ncc(CCc3ccncc3)cc2C(=O)N(C)c2ccc(Cl)nc21` came in with a melting point of 158 to 159 °C. The compound `CC(=O)N(C)C(Cc1ccncc1)C(=O)O` (configuration not stated) had a melting point of 86 to 88 °C. The figure for `O=C(O)CN1C(=O)C(=Cc2ccc(OCc3ccc(F)cc3F)c(OCc3ccccc3)c2)SC1=S` is 236 to 239 °C; for `CCN(C(=O)n1nnc2cc(C)c(C)cc21)c1ccccc1` it is 136 °C; for `CCOC(=O)Nc1cc(C(C)=O)c2c(c1)N(NC(C)c1ccccc1)c1ccccc1CC2` (configuration not stated) it is 144 to 152 °C. In the case of `CC=CCn1c(=O)n(C2OC(CO)C(O)C2O)c2nc(N)[nH]c(=O)c21` (configuration not stated) it was 167 to 170 °C; in that of `CC(=O)OCc1cn(C)c2ccccc2c1=O`, 142 to 146 °C. In turn, `CCCCSc1c2sc3ccccc3nc-2cc(C)c1=O` displayed a melting point of 97 °C. Regarding `O=c1[nH]c2sccc2c2c([N+](=O)[O-])cccc12`, the melting point was 255 to 258 °C.

`CCN(CC)C(=O)c1ccc(C(c2ccccc2)C2CCNCC2)cc1` (configuration not stated) gave a melting point of 160 to 162 °C.

Consider `CCCCCCCCCCCCCCCCC/C=C1\SC(=O)NC1=O`, for which the melting point lay within 97 to 98.5 °C. With `FC(F)(F)c1cccc2c(-c3ccccc3)c(Sc3ccccc3)cnc12`, the melting point is 153 to 155 °C. Consider `CN(C)c1ccc2c(c1)SC1=NCCN12`, for which the melting point came out at 144 °C. On to `CSc1cc(-c2ccc(C(F)(F)F)cc2)nc(-c2cccc(C(F)(F)F)c2)c1`, for which the melting point came to 98.5 °C. For the compound `CN1CCN(c2ccc3c4c(cccc24)C(=O)N(O)C3=O)CC1`, the melting point lay within 326 to 329 °C.

Compound `CC(=O)Nc1c(C#N)c(Cl)c(C#N)n1C` yielded a melting point of 180 to 182 °C. `CC(C)OC(=O)n1c(Cc2ccccc2)noc1=O` registered a melting point of 80 °C. `CCCC1=C([N+](=O)[O-])C(c2cccc3ccccc23)c2c[nH]nc2N1` (configuration not stated) returned a melting point of 226 °C.

On to `Clc1ccc(-c2coc3ccccc23)cc1`, for which the melting point was 56 to 57 °C. The figure for `NC(=NO)c1cc2c(cn1)[nH]c1ccccc12` is 159 to 163 °C.

As to `CCCCC(=O)Nc1ccc(-c2ccc(-c3ccccc3Cl)n2Cc2cccc(N)n2)cc1`, the melting point lay within 145 to 150 °C. `CNC(=O)C(Cc1ccc(OC)cc1)NC(=O)C(CC(C)C)C(CC(=O)NCC(N)=O)SC(C)=O` (configuration not stated): the melting point was 218 to 219 °C. In the case of `NC(N)=Nc1nc(-c2cccc(CSc3nc4ccccc4[nH]3)n2)cs1`, the melting point fell in the range of 209 to 211 °C. `N#CCCCOc1cccc(OCc2ccc3ccccc3n2)c1` displayed a melting point of 84 to 85 °C. The compound `CCNc1c(OC)cc(C(O)CS(C)(=O)=O)cc1OC` (configuration not stated) displayed a melting point of 121 to 122 °C. The compound `Cc1cccc(-c2nc(C3CCN(C)CC3)sc2-c2ccnc(NC(=O)c3ccccc3)c2)c1` yielded a melting point of 151 to 152 °C.

In turn, `O=C(O)CCCc1ccc(-c2ccccc2Br)cc1` yielded a melting point of 148 to 149 °C.

`Cn1c(CC#N)ccc1C(=O)c1ccccc1Cl` showed a melting point of 80 to 85 °C. `CC(C)Oc1ccc(-c2cccs2)cc1C=O`: the melting point lay within 186 to 187 °C. Turning to `CC1C(=O)N(c2ccc(Cl)cc2)C(=S)N1c1ccc(Cc2ccccc2)cc1` (configuration not stated), the melting point came out at 144 °C. Regarding `O=C(Nc1nnn[nH]1)c1cnc2sc3ccccc3n2c1=O`, the melting point lay in the range of 330 to 332 °C. `COc1ccc(CNc2nc3ccccc3c3[nH]c(C4CCCC4)nc23)cc1` had a melting point of 245 to 247 °C. The figure for `CNC(=O)ON=C1SCC(=O)N(C)C1C` (configuration not stated) is 161 to 163 °C. With `CCCCCCCCCCCCCCCCCC(=O)OC[C@H]1OCC(=NO)[C@@H](O)[C@@H]1O`, the melting point lay in the range of 99 to 105 °C.

For the compound `CCOC(=O)c1sc(-n2ccc(OCc3ccc(C(F)(F)F)o3)cc2=O)nc1C`, the melting point lay in the range of 196 to 198 °C. In the case of `CSc1cccc2nc(SCCN3CCN(CC(=O)Nc4c(C(C)C)cccc4C(C)C)CC3)oc12` it was 120 to 121 °C.

Turning to `CN(Cc1ccccc1)Cc1cnc(NC(=O)C(Cc2ccc(F)cc2)c2ccc(S(C)(=O)=O)cc2)cn1` (configuration not stated), the melting point lay in the range of 99 to 100 °C. In the case of `CCN1CCN([C@@H](CNS(=O)(=O)c2ccc(OCc3cc(C)nc4ccccc34)cc2)C(=O)NO)CC1` it was 150 °C. `O=S(=O)(Nc1cccc(Cl)c1F)c1cc(S(=O)(=O)Nc2cccc(Cl)c2F)c2cc(O)ccc2c1` displayed a melting point of 126 to 128 °C. `N=C(N)Nc1ccc(C(=O)Nc2ncc(Cl)[nH]2)cc1` came in with a melting point of 263 to 265 °C.

`COc1ccc2c(c1)C(CCCNC(C)=O)CCC2` (configuration not stated) showed a melting point of 71 to 73 °C.

For `O=S(=O)(Cl)c1nc2nc(CF)cc(Cl)n2n1`, the melting point fell in the range of 92 to 98 °C.

Compound `Cc1[nH]c(C(=O)NCCC(=O)O)c(C)c1-c1nc2ccc(C(=O)c3ccccc3)cc2[nH]1` had a melting point of 256 to 258 °C.

For the compound `Cc1sc([Si](C)(C)C)cc1C1=C(c2cc([Si](C)(C)C)sc2C)C(F)(F)C(F)(F)C1(F)F`, the melting point stood at 91.4 °C.

`O=C(Nc1cccc(-c2ccnc3c(C(=O)c4cccs4)cnn23)c1)c1ccco1` returned a melting point of more than 240 °C. In the case of `Cc1cccc(-c2ccc(O)cc2C=O)c1`, the melting point fell in the range of 148 to 150 °C. In turn, `CCCCCCCCC=CC(=O)c1c(C)[nH]n(-c2ccccc2)c1=O` gave a melting point of 40 °C. The compound `CCC1(O)CCC2C3CCC4CC(=O)CC(C)C4(C)C3CCC21C` (configuration not stated) yielded a melting point of 152 °C. `CC(=O)Nc1cc(C(F)(F)F)ccc1N1CCOCC1` showed a melting point of 85 °C. As for `CCCNC(=S)Nc1nc(OCc2cccc(C#N)c2)ncc1F`, the melting point lay in the range of 163 to 165 °C. `CC(C)(O)CCn1c(=O)n(C(=O)N[C@H](C(N)=O)C(C)(C)C)c2ccccc21` gave a melting point of 248 °C. The figure for `O=C(N[C@H]1CC(=O)N(c2cc(Cc3n[nH]c(=O)c4ccccc34)ccc2F)C1=O)OCc1ccccc1` is 121 to 127 °C. The figure for `CC(C)(C)c1nc2cc(N3CCOCC3)c(N=C=S)cc2s1` is 141 to 143 °C; for `N#Cc1c(N)sc2ccccc2c1=O` it is 295 to 299 °C. Turning to `CCS(=O)(=O)Nc1cc(-n2cnc(C(F)(F)F)cc2=O)c(F)cc1C#N`, the melting point came to 170 °C. For the compound `O=C1Nc2ccccc2Sc2ncccc21`, the melting point lay within 260 to 261 °C. In the case of `CS(=O)c1c(Br)nn(-c2c(Cl)cc(C(F)(F)F)cc2Cl)c1N` (configuration not stated) it was 135 to 136 °C; in that of `CC/C(=C\CCC(O)(CC)CC)c1cc(CCc2ccc(CO)c(CO)c2)cs1`, 85 to 86 °C.

As to `CCOC(=O)c1cc(C)nc2sc(C(N)=O)c(N)c12`, the melting point was in the range of 205 to 208 °C. Compound `Cc1ccc(CS(=O)(=O)c2nc3cscc3[nH]2)nc1` returned a melting point of 163 °C. The figure for `COCOc1cc(C=CC(=O)c2c(OC)cc(OC)c(CC=C(C)C)c2O)ccc1OC` is 116 to 117 °C; for `CC(C)(C)OC(=O)N1C(=O)O[C@@H](c2cccc(Cl)c2)[C@H]1Cc1ccc(CC(F)(F)C(F)(F)F)cc1` (racemic) it is 136 to 138 °C.

Take `CCOC(=O)CCc1cc(O)nn1-c1ccccc1`: the melting point lay in the range of 150 to 151 °C.

For the compound `CCCc1nn2ncc(C(=O)OCC)c2n1Cc1ccc(-c2ccccc2-c2nnnn2C(c2ccccc2)(c2ccccc2)c2ccccc2)cc1`, the melting point fell in the range of 106 to 108 °C.

The compound `COc1cc(N2CCN([C@H]3CC[C@H](c4cn(C)c5ccc(C#N)cc54)CC3)CC2)c2ncccc2c1C` gave a melting point of 212 to 213 °C.

For `CSc1cnc(NC(=O)c2ccccc2OC(C)=O)s1`, the melting point lay in the range of 145 to 147 °C. `COc1ccc2c(c1)C(OC(C)C)=C(C(N)=O)S2=O` (configuration not stated) displayed a melting point of 168 to 170 °C. Consider `CCOC(=O)COc1ccc(Oc2ccc([N+](=O)[O-])cc2)c(Cl)c1Cl`, for which the melting point was in the range of 90 to 91 °C. `C[C@]12C[C@H](c3ccc(OCCCCCCCl)cc3)[C@@H]3c4ccc(O)cc4CC[C@H]3[C@@H]1CC[C@@H]2O`: the melting point was 176 °C. As for `COC(=O)CCc1cc2cc(Cl)ccc2n1S(=O)(=O)c1cccc2cccnc12`, the melting point was 157 to 161 °C.

Regarding `O=c1[nH]c(=O)n(CCCCN2CCC(OC(c3ccccc3)c3ccccc3)CC2)c2cc([N+](=O)[O-])ccc12`, the melting point was 214 to 215 °C.

For the compound `Cc1c(C(N)=O)oc2c(C(=O)NCCCN3CCN(c4cc(Cl)ccc4OS(=O)(=O)C(F)(F)F)CC3)cccc2c1=O`, the melting point was in the range of 150 to 156 °C. `c1cc(-c2ccc(OCCCN3CCCC3)cc2)ccc1OCCCN1CCCCC1`: the melting point is 105 to 108 °C.

As for `COc1nc(N)nc2c1ncn2/C=C1\CC1(CO)CO`, the melting point is 179 to 180 °C. `COCOc1cc(Cl)ccc1-c1cc(-c2cccc(C(=O)NCCCn3ccnc3)c2)c(C#N)c(NC(=O)c2ccco2)n1`: the melting point was 121 to 122 °C. In turn, `CCCCNC1=NS(=O)(=O)c2sc(Cl)cc2N1` came in with a melting point of 218 to 219 °C.

As to `CCOC(=O)C(=CNc1ccc(F)c(Cl)c1)C(=O)c1ccccc1Cl`, the melting point was in the range of 96 to 102 °C.

Regarding `COc1ccc(CNc2ccc(Cl)cc2C(=O)C(F)(F)F)cc1`, the melting point was 82 to 84 °C. `Oc1cc(Cl)c(OCc2ccc(F)c(Oc3ccccc3)c2)c(Cl)c1` yielded a melting point of 145 °C. Take `CCN(CC)C(=O)Nc1ccc(S(=O)(=O)N2C(=O)C(NCCN3CCNCC3)(c3ccccc3Cl)c3cc(Cl)ccc32)cc1` (configuration not stated): the melting point was 260 °C. In turn, `CCCCCCCCC1C(=O)NC(=O)N1CCCCCCC(=O)O` (configuration not stated) showed a melting point of 65 to 66 °C. `CCc1n[nH]c(CC)c1CCCCCCOc1ccccc1` registered a melting point of 119 to 121 °C. `CN1C(C)(C)CC(OC(=O)NNC(=O)OC2CC(C)(C)N(C)C(C)(C)C2)CC1(C)C` gave a melting point of 189 to 191 °C. The compound `Cc1c(C)c2c(c(C)c1C=O)CC(C)(C)C2` showed a melting point of 61 to 62 °C. In the case of `Cc1c(-c2ccc(O)cc2)n(Cc2ccc(OCCN3CCC(C)CC3)cc2)c2ccc(O)cc12` it was 154 to 162 °C.

These data come from a melting point compilation (Tetko et al.; mined from patent text by program, amines drawn as free bases though some values may be those of a salt).
